Activity, ED50 and Stability data for seven compounds are collected here from ChEMBL document CHEMBL3244006, “Synthesis and antinociceptive activity of 7-methoxycodeine” (J Med Chem, 1978).

Data set [1] concerns Mus musculus. Put plainly: Antinociceptive activity in mouse at 100 mg/kg, po by Eddy hot-plate assay. Format: functional, organism-based. More on the design: dose 100 mg/kg. For orientation: Thermal pain tests record how soon the animal reacts.
The subject of data set [2] is Mus musculus. In words: Antinociceptive activity in sc dosed mouse by Eddy hot-plate assay. The class given is functional.
Data set [3] relates to Mus musculus. In words: Antinociceptive activity in po dosed mouse by Eddy hot-plate assay. The class given is functional.
Data set [4] in a line: Stability of the compound in acidic media. Format: physicochemical.
Data set [5] has as its system Mus musculus. In words: Antinociceptive activity in mouse at 100 mg/kg, sc by Eddy hot-plate assay. The class given is functional, organism-based. Set-up: dose 100 mg/kg.

The source made the active and inactive calls. No cut-off for these calls is given here.

A word on the ED50: it is the dose at which the effect has come halfway, by size or by number of responders. Read a low ED50 as an effect at a small dose.

With `COc1ccc2c(c1O)[C@]13CCN(C)[C@H](C2)[C@@H]1CC(=O)C(=O)C3`, the result in data set [1] was inactive. Besides, in data set [2], it took a dose of 26.7 µmol/kg to reach the 50% effect level (ED50). With `COc1ccc2c3c1O[C@H]1[C@@H](O)C=C[C@H]4[C@@H](C2)N(C)CC[C@@]341` [CODEINE PHOSPHATE], the ED50 in data set [3] is 34 µmol/kg. Take `COC1=C[C@H]2[C@H]3Cc4ccc(OC)c5c4[C@@]2(CCN3C)[C@@H](O5)[C@H]1O`: the Stability result in data set [4] was “Unstable”. In addition, the ED50 in data set [3] was determined as 30.4 µmol/kg; in data set [2] it was 43.1 µmol/kg. Take `COC1=C[C@H]2[C@H]3Cc4c(Br)cc(OC)c(O)c4[C@@]2(CCN3C)CC1=O`: the result in data set [5] was inactive. For `COC1=C[C@H]2[C@H]3Cc4c(Br)cc(OC)c5c4[C@@]2(CCN3C)[C@@H](O5)C1=O`, the ED50 in data set [2] is 40.4 µmol/kg. In the case of `CN1CC[C@]23c4c5ccc(O)c4O[C@H]2[C@@H](O)C=C[C@H]3[C@H]1C5`, the results for the ED50 in data set [3] and in data set [2] were 18.8 µmol/kg and 3.3 µmol/kg, respectively. As for `COC1=C[C@]23CCN(C)[C@H](Cc4c(Br)cc(OC)c(O)c42)[C@@H]3CC1=O`, the result in data set [5] was inactive.
